# According to patent US9119805B2, “Therapy and prevention of problem drinking” (THE UNIVERSITY OF SYDNEY, priority 2009, dated 2015):
# Entries after “also recorded” stand apart in the source; their conditions may differ.
# Key:
# Format in all cases: in vivo, rat
# [1] = test system: P rats; experiment: Lickometer choice of Vodka Cruiser versus 3% sucrose after acute oxytocin in alcohol-exposed P rats (Example 1)
# From the text: P rats (8 female and 8 male P rats) were provided by Professor Andrew Lawrence at the Howard Florey Institute, Melbourne, Australia. The animals were of adolescent age (i.e., 28 days-old) on arrival at the animal house. Animals were housed in same-sex cages at a density of 3-4 rats per cage. Over the following 2 months, animals received intermittent exposure to various alcoholic beverages in their home cages e.g., white wine, red wine, beer, Vodka Cruiser, Bacardi Breezer, but were alcohol-free for the month preceding testing.
# Testing occurred in a lickometer apparatus. Rats were placed in a small metal cage where they have a choice of two tubes for supply of liquids, wherein the tube were designed such that every third lick at one tube delivered a small drop (0.07 ml) of 3% (w/v) sucrose solution, and every third lick at the other tube delivered a small amount of alcohol-containing beverage, in particular Vodka Cruiser (Raspberry Flavor), containing 5.0% (w/v) ethanol. Rats were exposed daily to 70 min sessions in the lickometer until their intake of sucrose and/or alcohol and preferences for these beverages had stabilized.
# One-half of the rats being tested were injected intra-peritoneally (I/P) with a single dosage of 0.3 mg/kg oxytocin, administered 10 min before their daily drinking session. The following day, these animals received a normal baseline test session with no further oxytocin dosing. The following day, one-half of the animals were administered I/P with 1 mg/kg oxytocin 10 min before the test session. Normal drinking sessions then continued for a further 4 days. During the same period, the other one-half of the rats were administered a placebo (vehicle) lacking oxytocin. Animals receiving the placebo were treated with oxytocin in exactly the same sequence as the treatment group, commencing one week after the start of testing. A final test to determine alcohol intake and alcohol preference was conducted after 55 days, to determine whether or not oxytocin induced lasting changes in drinking behavior.
# [2] = test system: Male Wistar rats; experiment: Emergence test of anxiety after oxytocin pre-treatment (Example 3)
# Experimental: Male Wistar rats (n=48) were obtained from the Animal Resource Centre (ARC), Perth, Western Australia, Australia. The animals were of early adolescent age (i.e., 21 days-old) on arrival and were young adults (i.e., 33 days-old) when oxytocin therapy commenced. The animals were housed and maintained as described in the preceding examples, except that animals were moved to individual housing during chronic exposure to alcohol.
# One-half of the rats (n=24) were administered 10 injections of 1 mg/kg oxytocin (1×I/P injection per day for a total of 10 days). The other half of the rats (n=24) received equivalent injections of placebo/vehicle lacking oxytocin.
# At 7 days following final injection of oxytocin, all rats were tested in an emergence test of anxiety. This 5 min test measures the willingness of rats to leave a small dark hide box and emerge into a brightly lit open field. Rats normally avoid brightly lit and open spaces. Three days later, the animals were tested in social interaction tests which measure the willingness of rats to engage in social behavior during a 10 min session in a darkened arena where they meet an unknown rat that has received the same drug treatment.
# [3] = test system: rats having established patterns of pathologically-high alcohol consumption; experiment: Beer and water consumption in the 2.5 hr after a single oxytocin injection in alcohol-dependent animals (Example 4, FIG. 8); details: 2.5 hr following 1 mg/kg IP
# Experimental: FIG. 8 provides graphical representations showing total consumption (ml) of full strength beer (panel A) and water (panel B) in rats having established patterns of pathologically-high alcohol consumption over several months, in a 2.5 hr period following intraperitoneal (IP) injection with 1 mg/kg oxytocin (OXY, n=8) or saline vehicle (VEH, n=8). […] Alcohol consumption in animals treated with oxytocin was reduced in the short-term by about 25% to about 40% or about 50% or about 60%. In contrast, consumption of water was unchanged in animals receiving oxytocin or saline vehicle placebo.
# Alcohol-dependent animals were provided a single injection i/p of oxytocin (1 mg/kg body weight) and their alcohol consumption levels in the 2.5 hr period following therapy were determined.
# [4] = acute oxytocin 0.3 and 1 mg/kg I/P, 10 min before 70 min session
# [5] = 10 x 1 mg/kg I/P, tested 7 days after final injection, versus vehicle
structure (smiles),measurement,setting,value
CC[C@H](C)[C@@H]1NC(=O)[C@H](Cc2ccc(O)cc2)NC(=O)[C@@H](N)CSSC[C@@H](C(=O)N2CCC[C@H]2C(=O)N[C@@H](CC(C)C)C(=O)NCC(N)=O)NC(=O)[C@H](CC(N)=O)NC(=O)[C@H](CCC(N)=O)NC1=O [oxytocin],duration of the reduction in alcohol preference and alcohol intake,"[1]; P rats, after 1 mg/kg oxytocin",7-8 weeks
same,intake of Vodka Cruiser (alcohol consumption),[1]; [4],significant reduction; also recorded: reduced their alcohol consumption significantly
same,intake of sucrose solution,[1]; [4],significant reduction
same,time intake of the alcoholic beverage remained suppressed,[1]; following oxytocin,at least 55 days
same,reduction of baseline alcohol intake,"[1]; male and female P rats, 2 days following treatment, FIG. 1",about 50%
same,"reduction in alcohol consumption, comparison between the sexes",[1]; male versus female P rats,comparable between the sexes
same,preference for alcohol (Vodka Cruiser versus 3% sucrose),[1]; treated male and female P rats,shift towards a preference for alcohol-free solution; also recorded: reduced preference for alcohol
same,emergence from hide into brightly-lit open field,[2]; [5],greater likelihood of emergence into the open field; also recorded: emerged more rapidly
same,time hiding,[2]; [5],reduced time hiding; also recorded: significantly less time hiding
same,anxiety,[2]; relative to control rats,reduced anxiety
same,consumption of water,[3],unchanged; also recorded: not affected
same,beer (alcohol) consumption,[3]; versus saline vehicle,significantly reduced beer consumption
